Data reported in PubChem BioAssay (NCI).
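Grown in 96-well plates, cells were treated for 48 hours with each compound at five concentrations. Insufficient inhibition: endpoint recorded as highest concentration tested. GI50 is the concentration that inhibits growth by half. The concentration for full growth arrest is given as TGI.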

Experiments:
Experiment in all cases: NCI-60 cell line screen, 48 h
786-0 renal = test system: 786-0 renal
A498 renal = test system: A498 renal
A549 NSCLC = test system: A549 NSCLC
ACHN renal = test system: ACHN renal
BT-549 breast = test system: BT-549 breast
CAKI-1 renal = test system: CAKI-1 renal
CCRF-CEM leukemia = test system: CCRF-CEM leukemia
COLO 205 colon = test system: COLO 205 colon
DU-145 prostate = test system: DU-145 prostate
EKVX NSCLC = test system: EKVX NSCLC
HCC-2998 colon = test system: HCC-2998 colon
HCT-116 colon = test system: HCT-116 colon
HCT-15 colon = test system: HCT-15 colon
HL-60(TB) leukemia = test system: HL-60(TB) leukemia
HOP-62 NSCLC = test system: HOP-62 NSCLC
HOP-92 NSCLC = test system: HOP-92 NSCLC
HS 578T breast = test system: HS 578T breast
HT29 colon = test system: HT29 colon
IGROV1 ovarian = test system: IGROV1 ovarian
K-562 leukemia = test system: K-562 leukemia
KM12 colon = test system: KM12 colon
LOX IMVI melanoma = test system: LOX IMVI melanoma
M14 melanoma = test system: M14 melanoma
MALME-3M melanoma = test system: MALME-3M melanoma
MCF7 breast = test system: MCF7 breast
MDA-MB-231 breast = test system: MDA-MB-231 breast
MDA-MB-435 = test system: MDA-MB-435
MOLT-4 leukemia = test system: MOLT-4 leukemia
NCI-H226 lung = test system: NCI-H226 lung

## Cc1ccc(C(=Nc2ccccc2)N=P(c2ccccc2)(c2ccccc2)c2ccccc2)cc1
786-0 renal
  GI50: 1710 nM
  TGI: 4290 nM
A498 renal
  GI50: 1720 nM
  TGI: 5320 nM
A549 NSCLC
  GI50: 1430 nM
  TGI: 15000 nM
ACHN renal
  GI50: 1340 nM
BT-549 breast
  GI50: 1540 nM
  TGI: 3960 nM
CAKI-1 renal
  GI50: 1820 nM
CCRF-CEM leukemia
  GI50: 2510 nM
  TGI: 6500 nM
COLO 205 colon
  GI50: 833 nM
  TGI: 2320 nM
DU-145 prostate
  GI50: 2090 nM
EKVX NSCLC
  GI50: 1440 nM
HCC-2998 colon
  GI50: 1220 nM
  TGI: 3720 nM
HCT-116 colon
  GI50: 986 nM
  TGI: 3920 nM
HCT-15 colon
  GI50: 1220 nM
HL-60(TB) leukemia
  GI50: 235 nM
  TGI: 593 nM
HOP-62 NSCLC
  GI50: 2140 nM
HOP-92 NSCLC
  TGI: 1400 nM
HS 578T breast
  GI50: 1480 nM
  TGI: 7840 nM
HT29 colon
  GI50: 1150 nM
  TGI: > 36800 nM
IGROV1 ovarian
  GI50: 621 nM
  TGI: 4960 nM
K-562 leukemia
  GI50: 4220 nM
  TGI: > 100000 nM
KM12 colon
  GI50: 1070 nM
  TGI: 4710 nM
LOX IMVI melanoma
  GI50: 949 nM
  TGI: 4280 nM
M14 melanoma
  GI50: 1810 nM
  TGI: 8770 nM
MALME-3M melanoma
  GI50: 288 nM
  TGI: 946 nM
MCF7 breast
  GI50: 1430 nM
  TGI: 4850 nM
MDA-MB-231 breast
  GI50: 2210 nM
  TGI: 7750 nM
MDA-MB-435
  GI50: 955 nM
  TGI: 3230 nM
MOLT-4 leukemia
  GI50: 328 nM
  TGI: 1290 nM
NCI-H226 lung
  GI50: 1570 nM
